In patent US6706704B2 (priority 2001, dated 2004):

Experiments:
[1] = system: CO2 responsiveness of phrenic nerve activity; parameters: species or system cat; settings: in vivo
[2] = system: bulbospinal Aug-I neurons of the VRG; assay: Iontophoresis of DAMGO and opioid receptor blockers on bulbospinal inspiratory (Aug-I) neurons, extracellular recording; type: in vivo, cat; settings: for effect of opioid receptor blocker on DAMGO-mediated depression: naloxonazine 50-90 nA (15 neurons), naltrindole 50-100 nA (10 neurons)
[3] = system: D1-dopamine receptors (phrenic nerve activity); parameters: species or system cat; settings: in vivo

Question: Which “sensitivity of PN activity to CO2” value [1] does the source give for `Br.C=CCN1CCc2c(cc(O)c(O)c2Cl)C(c2ccccc2)C1` (racemic) [(±)-chloro-APB, (+/−)6-chloro-7,8-dihydroxy-3-allyl-1-phenyl-2,3,4,5-tetrahydro-1H-3-benzazepine hydrobromide] here?
Answer: did not significantly alter the sensitivity of PN activity to CO2

Question: `C[C@@H](NC(=O)[C@@H](N)Cc1ccc(O)cc1)C(=O)NCC(=O)N(C)[C@@H](Cc1ccccc1)C(=O)NCCO` [DAMGO, D-Ala^2,N-Me-Phe^4,Gly-ol^5-Enkephalin] was tested. Which DAMGO-mediated depression ([2]; DAMGO without blocker) did it give?
Answer: 50-85%

Question: What about the “time to restoration of control activity during recovery” value ([2]; after DAMGO iontophoresis) of the same compound?
Answer: 60 to 90 s

Question: And the action potential frequency ([2]; iontophoresis 1-3 minutes, 50-90 nA ejecting currents)?
Answer: 50-85 % of control

Question: What about the “effect on discharges of Aug-I neurons” value ([2]; iontophoresis, 25 neurons, pentobarbital-anesthetized cats) of the same compound?
Answer: depressed discharges of all Aug-I neurons

Question: With `C=CCN1CC[C@]23c4c5ccc(O)c4O[C@H]2/C(=N/N=C2\CC[C@@]4(O)[C@H]6Cc7ccc(O)c8c7[C@@]4(CCN6CC=C)[C@H]2O8)CC[C@@]3(O)[C@H]1C5` [Naloxonazine] as the compound, how does the DAMGO-mediated depression ([2]; in the presence of Naloxonazine (50-90 nA)) read?
Answer: 20-35%

Question: And the “effect of opioid receptor blocker on DAMGO-mediated depression” value ([2]; iontophoresis)?
Answer: blocked DAMGO-mediated depression in all neurons tested

Question: How did the “effect of opioid receptor blocker on DAMGO-mediated depression” value ([2]; iontophoresis) turn out when `Oc1ccc2c3c1O[C@H]1c4[nH]c5ccccc5c4C[C@@]4(O)[C@@H](C2)N(CC2CC2)CC[C@]314` [Naltrindole] was run?
Answer: without effect on all neurons tested

Question: For `CN1CCc2cc(Cl)c(O)cc2[C@@H](c2ccccc2)C1` [R(+)-SCH-23390, (R)(+)-7-chloro-8-hydroxy-3-methyl-1-phenyl-2,3,4,5-tetrahydro-1H-3-benzazepine], which “effect of D1 antagonist on D1 agonist effects” value [3] is on record?
Answer: blocked D1 agonist effects
